Results on 23 compounds are retold here after patent publication US6706740B2, “Fungicidal heterocyclic aromatic amides and their compositions, methods of use and preparation” (Dow AgroSciences LLC, priority 1999, dated 2004).

A value given as a limit tells only on which side of the number the result lay.

Format in all cases: cell-based
In assay [1] the test system is Magnaporthe grisea (Pyricularia oryzae—PYRIOR). Kind of assay: microbe, parasite or virus in culture. Particulars: Pyricularia oryzae, read-out: PYRIOR in vitro Growth Inhibition.
The subject of assay [2] is Rhizoctonia solani (RHIZSO). Briefly: microbe, parasite or virus in culture. To be noted: Rhizoctonia solani, read-out: RHIZSO in vitro Growth Inhibition.
For assay [3], the system named is Mycosphaerella graminicola (Septoria tritici—SEPTTR). Kind of assay: In vitro fungal growth inhibition, Mycosphaerella graminicola (SEPTTR). To be noted: Zymoseptoria tritici; 25 ppm in growth medium; read-out: SEPTTR in vitro Growth Inhibition.
The subject of assay [4] is Stagonospora nodorum (Leptosphaeria nodorum—LEPTNO). Briefly: In vitro fungal growth inhibition, Stagonospora nodorum (LEPTNO). Particulars: Leptosphaeria; 25 ppm in growth medium; read-out: LEPTNO in vitro Growth Inhibition.
The test system of another assay is Ustilago maydis (USTIMA). Briefly: microbe, parasite or virus in culture. To be noted: Mycosarcoma maydis, read-out: USTIMA in vitro Growth Inhibition.
Assay [5] relates to Phytophthora infestans (PHYTIN). Briefly: microbe, parasite or virus in culture. To be noted: Phytophthora infestans, read-out: PHYTIN in vitro Growth Inhibition.

In the case of `COc1ccnc(C(=O)NCCCCC(=O)Oc2cccc(NC(C)=O)c2)c1O` [Compound 367], the inhibition (commonly the share of the control response that was lost under treatment) at 25 ppm in assay [1] is > 80%; in assay [2], < 80%; in assay [3], < 80%; in assay [4] it was < 80%; in the assay on Ustilago maydis (USTIMA), < 80%; in assay [5], < 80%.
For `COc1ccnc(C(=O)NC(Cc2ccc(OCc3ccccc3)cc2)C(=O)O)c1O` (stereo not drawn) [Compound 374], the inhibition at 25 ppm was < 80% in assay [1]; < 80% in assay [2]; < 80% in assay [3]; > 80% in assay [4]; < 80% in the assay with Ustilago maydis (USTIMA); < 80% in assay [5].
Regarding `COc1ccnc(C(=O)N[C@H]2COC(=O)[C@H](Cc3ccccc3)[C@@H](OC(=O)C(C)C)[C@H](C)OC2=O)c1OC(=O)c1c(-c2c(Cl)cccc2Cl)noc1C` [Compound 677], the inhibition at 25 ppm was < 80% in assay [1]; < 80% in assay [2]; < 80% in assay [3]; > 80% in assay [4]; < 80% in the assay on Ustilago maydis (USTIMA); < 80% in assay [5].
For the compound `COc1ccnc(C(=O)N[C@H]2COC(=O)[C@H](Cc3ccccc3)[C@@H](OC(=O)C(C)C)[C@H](C)OC2=O)c1OC(=O)C(Cl)c1ccccc1` (stereo partly drawn) [Compound 649], the inhibition at 25 ppm in assay [1] was > 80%; in assay [2], < 80%; in assay [3] it was < 80%; in assay [4] it was > 80%; in the assay on Ustilago maydis (USTIMA) it was < 80%; in assay [5], < 80%.
`COc1ccnc(C(=O)N[C@H]2COC(=O)[C@H](Cc3ccccc3)[C@@H](OC(=O)C(C)C)[C@H](C)OC2=O)c1OC(=O)c1snnc1C` [Compound 676]: the inhibition at 25 ppm was < 80% in assay [1]; < 80% in assay [2]; < 80% in assay [3]; > 80% in assay [4]; < 80% in the assay with Ustilago maydis (USTIMA); < 80% in assay [5].
With `COc1ccnc(C(=O)N[C@H]2COC(=O)[C@H](Cc3ccccc3)[C@@H](OC(=O)C(C)C)[C@H](C)OC2=O)c1OC(=O)c1ccc(F)cc1` [Compound 637], the inhibition at 25 ppm in assay [1] is < 80%; in assay [2], < 80%; in assay [3], < 80%; in assay [4], > 80%; with Ustilago maydis (USTIMA), < 80%; in assay [5] it was < 80%.
As for `COc1ccnc(C(=O)N[C@H]2COC(=O)[C@H](Cc3ccccc3)[C@@H](OC(=O)C(C)C)[C@H](C)OC2=O)c1OC(=O)c1ccccc1Br` [Compound 647], the inhibition at 25 ppm is < 80% in assay [1]; < 80% in assay [2]; < 80% in assay [3]; > 80% in assay [4]; < 80% with Ustilago maydis (USTIMA); < 80% in assay [5].
For `COc1ccnc(C(=O)NCC(=O)OCCCCCc2ccccc2)c1O` [Compound 371], the inhibition at 25 ppm is < 80% in assay [1]; > 80% in assay [2]; < 80% in assay [3]; < 80% in assay [4]; < 80% with Ustilago maydis (USTIMA); < 80% in assay [5].
With `COc1ccnc(C(=O)N[C@H]2COC(=O)[C@H](Cc3ccccc3)[C@@H](OC(=O)C(C)C)[C@H](C)OC2=O)c1OC(=O)c1cccc(C)c1C` [Compound 632], the inhibition at 25 ppm was < 80% in assay [1]; < 80% in assay [2]; < 80% in assay [3]; > 80% in assay [4]; < 80% in the assay on Ustilago maydis (USTIMA); < 80% in assay [5].
In the case of `CCCSC(=O)Oc1c(OC)ccnc1C(=O)N[C@H]1COC(=O)[C@H](Cc2ccccc2)[C@@H](OC(=O)C(C)C)[C@H](C)OC1=O` [Compound 699], the inhibition at 25 ppm in assay [1] was > 80%; in assay [2] it was < 80%; in assay [3], < 80%; in assay [4] it was > 80%; with Ustilago maydis (USTIMA), < 80%; in assay [5], < 80%.
For the compound `COc1ccnc(C(=O)N[C@H]2COC(=O)[C@H](Cc3ccccc3)[C@@H](OC(=O)C(C)C)[C@H](C)OC2=O)c1OC(=O)Oc1ccccc1` [Compound 697], the inhibition at 25 ppm in assay [1] was < 80%; in assay [2] it was < 80%; in assay [3] it was < 80%; in assay [4], > 80%; in the assay with Ustilago maydis (USTIMA), < 80%; in assay [5], < 80%.
For the compound `COc1ccnc(C(=O)N[C@H]2COC(=O)[C@H](Cc3ccccc3)[C@@H](OC(=O)C(C)C)[C@H](C)OC2=O)c1OC(=O)c1cc(Cl)cnc1Cl` [Compound 671], the inhibition at 25 ppm in assay [1] is < 80%; in assay [2], < 80%; in assay [3] it was < 80%; in assay [4], > 80%; in the assay with Ustilago maydis (USTIMA) it was < 80%; in assay [5], < 80%.
As for `COc1ccnc(C(=O)NC(CC(N)=O)C(=O)OC/C=C(/C)CCC=C(C)C)c1O` (stereo not drawn) [Compound 373], the inhibition at 25 ppm in assay [1] is < 80%; in assay [2], > 80%; in assay [3], < 80%; in assay [4], < 80%; with Ustilago maydis (USTIMA), < 80%; in assay [5], < 80%.
Turning to `COc1ccnc(C(=O)NC(C)C(=O)OCCCCCc2ccccc2)c1O` (stereo not drawn) [Compound 370], the inhibition at 25 ppm is < 80% in assay [1]; < 80% in assay [2]; < 80% in assay [3]; > 80% in assay [4]; < 80% with Ustilago maydis (USTIMA); < 80% in assay [5].
In the case of `COc1ccnc(C(=O)N[C@H]2COC(=O)[C@H](Cc3ccccc3)[C@@H](OC(=O)C(C)C)[C@H](C)OC2=O)c1OC(=O)Cc1cccs1` [Compound 675], the inhibition at 25 ppm in assay [1] was > 80%; in assay [2], < 80%; in assay [3] it was < 80%; in assay [4] it was > 80%; in the assay with Ustilago maydis (USTIMA), < 80%; in assay [5], < 80%.
`COc1ccnc(C(=O)N[C@H]2COC(=O)[C@H](Cc3ccccc3)[C@@H](OC(=O)C(C)C)[C@H](C)OC2=O)c1OC(=O)c1cccc(C(F)(F)F)c1` [Compound 640]: the inhibition at 25 ppm is < 80% in assay [1]; < 80% in assay [2]; < 80% in assay [3]; > 80% in assay [4]; < 80% with Ustilago maydis (USTIMA); < 80% in assay [5].
Take `COc1ccnc(C(=O)NCCCCCCCCCCC(=O)Oc2cccc(NC(C)=O)c2)c1O` [Compound 363]: the inhibition at 25 ppm was > 80% in assay [1]; < 80% in assay [2]; < 80% in assay [3]; < 80% in assay [4]; < 80% in the assay with Ustilago maydis (USTIMA); < 80% in assay [5].
Turning to `COc1ccnc(C(=O)N[C@H]2COC(=O)[C@H](Cc3ccccc3)[C@@H](OC(=O)C(C)C)[C@H](C)OC2=O)c1OC(=O)c1ccc(Cl)c(Cl)c1` [Compound 644], the inhibition at 25 ppm in assay [1] is < 80%; in assay [2] it was < 80%; in assay [3], < 80%; in assay [4], > 80%; with Ustilago maydis (USTIMA), < 80%; in assay [5] it was < 80%.
As to `COc1ccnc(C(=O)N[C@H]2COC(=O)[C@H](Cc3ccccc3)[C@@H](OC(=O)C(C)C)[C@H](C)OC2=O)c1OC(=O)c1c(F)c(F)c(F)c(F)c1F` [Compound 642], the inhibition at 25 ppm is < 80% in assay [1]; < 80% in assay [2]; < 80% in assay [3]; > 80% in assay [4]; < 80% in the assay on Ustilago maydis (USTIMA); < 80% in assay [5].
On to `COc1ccnc(C(=O)N[C@H]2COC(=O)[C@H](Cc3ccccc3)[C@@H](OC(=O)C(C)C)[C@H](C)OC2=O)c1OC(=O)/C=C/c1ccccc1` [Compound 651], for which the inhibition at 25 ppm in assay [1] was < 80%; in assay [2], < 80%; in assay [3], < 80%; in assay [4], > 80%; in the assay on Ustilago maydis (USTIMA), < 80%; in assay [5], < 80%.
`COc1ccnc(C(=O)N[C@H]2COC(=O)[C@H](Cc3ccccc3)[C@@H](OC(=O)C(C)C)[C@H](C)OC2=O)c1OC(=O)c1ccccc1F` [Compound 636]: the inhibition at 25 ppm in assay [1] was < 80%; in assay [2] it was < 80%; in assay [3] it was < 80%; in assay [4], > 80%; in the assay with Ustilago maydis (USTIMA), < 80%; in assay [5] it was < 80%.
Consider `COc1ccnc(C(=O)NCCCCCCCC(=O)Oc2ccc(C)c(Cl)c2)c1O` [Compound 368], for which the inhibition at 25 ppm is < 80% in assay [1]; > 80% in assay [2]; < 80% in assay [3]; < 80% in assay [4]; < 80% with Ustilago maydis (USTIMA); < 80% in assay [5].
As for `COc1ccnc(C(=O)NCCCCC(=O)Oc2cccnc2Br)c1O` [Compound 366], the inhibition at 25 ppm in assay [1] was < 80%; in assay [2], < 80%; in assay [3] it was < 80%; in assay [4], < 80%; in the assay on Ustilago maydis (USTIMA) it was < 80%; in assay [5], > 80%.
